Test results taken from ChEMBL document CHEMBL6071129, “Strategies that regulate Hippo signaling pathway for novel anticancer therapeutics” (Eur J Med Chem, 2024).
Values belong to the compound of their own block, whether it stands above or below them.

Experiments:
[1] = test system: GBM; test: Antiproliferative activity against human GBM cells incubated for 48 hrs by CCK8 assay; assay type: functional, cell-based
[2] = test system: U-251; test: Antiproliferative activity against human U-251 cells incubated for 48 hrs by CCK8 assay; assay type: functional, cell-based; conditions: U-251, 48 h
[3] = test system: U-87 MG; test: Antiproliferative activity against human U87 cells incubated for 48 hrs by CCK8 assay; assay type: functional, cell-based, U-87MG ATCC
[4] = Antiproliferative activity against mouse GL261 cells incubated for 48 hrs by CCK8 assay; assay type: functional, cell-based; conditions: GL261, 48 h
[5] = test system: LN-229; test: Antiproliferative activity against LN-229 cells incubated for 48 hrs by CCK8 assay; assay type: functional, cell-based; conditions: Homo sapiens, LN-229, 48 h
[6] = Antiproliferative activity against […] cells incubated for 48 hrs by CCK8 assay; assay type: functional, cell-based; conditions: U373 MG
[7] = test system: MDA-MB-231; test: Antiproliferative activity against human MDA-MB-231 cells incubated for 96 hrs by MTT assay; assay type: functional, cell-based; conditions: MDA-MB-231, 96 h
[8] = Antiproliferative activity against human HBC5 cells incubated for 96 hrs by MTT assay; assay type: functional, cell-based; conditions: HBC5, 96 h
[9] = test system: MDA-MB-453; test: Antiproliferative activity against human MDA-MB-453 cells incubated for 96 hrs by MTT assay; assay type: functional, cell-based; conditions: MDA-MB-453, 96 h
[10] = test system: MCF7; test: Antiproliferative activity against human MCF7 cells incubated for 48 hrs by CCK8 assay; assay type: functional, cell-based; conditions: MCF7, 48 h
[11] = test system: HCT-116; test: Antiproliferative activity against human HCT-116 cells incubated for 48 hrs by MTT assay; assay type: functional, cell-based; conditions: HCT-116, 48 h
[12] = test system: A2780; test: Antiproliferative activity against human A2780 cells incubated for 48 hrs by MTT assay; assay type: functional, cell-based; conditions: A2780, 48 h
[13] = Antiproliferative activity against human A2780/CP70 cells incubated for 48 hrs by MTT assay; assay type: functional, cell-based; conditions: A2780/CP70, 48 h
[14] = Antiproliferative activity against human HCA46 cells incubated for 48 hrs by MTT assay; assay type: functional, cell-based; conditions: HCA46, 48 h
[15] = test system: HT-29; test: Antiproliferative activity against human HT-29 cells incubated for 48 hrs by MTT assay; assay type: functional, cell-based; conditions: HT-29, 48 h
[16] = Antiproliferative activity against human JHESO cells incubated for 72 hrs by MTS assay; assay type: functional, cell-based
[17] = Antiproliferative activity against human SKGT4 cells incubated for 72 hrs by MTS assay; assay type: functional, cell-based; conditions: SKGT4, 72 h
[18] = Antiproliferative activity against human OACP cells incubated for 72 hrs by MTS assay; assay type: functional, cell-based
[19] = Antiproliferative activity against human FLO-1 cells incubated for 72 hrs by MTS assay; assay type: functional, cell-based; conditions: FLO-1, 72 h
[20] = Antiproliferative activity against CMT9 cells incubated for 48 hrs; assay type: functional; conditions: Canis lupus familiaris, read-out: ED50 (the source's name)
[21] = Antiproliferative activity against CMT47 cells incubated for 48 hrs; assay type: functional; conditions: Canis lupus familiaris, read-out: ED50 (the source's name)
[22] = test system: HuCCT-1; test: Antiproliferative activity against human HuCCT-1 cells incubated for 24 hrs by WST-1 assay; assay type: functional, cell-based; conditions: HuCCT-1, 24 h
[23] = Inhibition of His-tagged TEAD1 (unknown origin) to YAP (unknown origin) protein-protein interaction preincubated for 30 mins followed by biotinylated YAP addition and measured after 60 mins by TR-FRET assay; design: species or system Homo sapiens
[24] = Inhibition of His-tagged TEAD2 (unknown origin) to YAP (unknown origin) protein-protein interaction preincubated for 30 mins followed by biotinylated YAP addition and measured after 60 mins by TR-FRET assay; design: species or system Homo sapiens
[25] = Inhibition of His-tagged TEAD3 (unknown origin) to YAP (unknown origin) protein-protein interaction preincubated for 30 mins followed by biotinylated YAP addition and measured after 60 mins by TR-FRET assay; design: species or system Homo sapiens
[26] = Inhibition of His-tagged TEAD4 (unknown origin) to YAP (unknown origin) protein-protein interaction preincubated for 30 mins followed by biotinylated YAP addition and measured after 60 mins by TR-FRET assay; design: species or system Homo sapiens
[27] = Inhibition of His-tagged TEAD1 (unknown origin) to TAZ (unknown origin) protein-protein interaction preincubated for 30 mins followed by biotinylated YAP addition and measured after 60 mins by TR-FRET assay; design: species or system Homo sapiens
[28] = Inhibition of His-tagged TEAD2 (unknown origin) to TAZ (unknown origin) protein-protein interaction preincubated for 30 mins followed by biotinylated YAP addition and measured after 60 mins by TR-FRET assay; design: species or system Homo sapiens
[29] = Inhibition of His-tagged TEAD3 (unknown origin) to TAZ (unknown origin) protein-protein interaction preincubated for 30 mins followed by biotinylated YAP addition and measured after 60 mins by TR-FRET assay; design: species or system Homo sapiens
[30] = Inhibition of His-tagged TEAD4 (unknown origin) to TAZ (unknown origin) protein-protein interaction preincubated for 30 mins followed by biotinylated YAP addition and measured after 60 mins by TR-FRET assay; design: species or system Homo sapiens
[31] = test system: Transcriptional enhancer factor TEF-1-Lipid; test: Inhibition of His-tagged TEAD1 (unknown origin) to lipid (unknown origin) interaction preincubated for 30 mins followed by biotinylated lipid addition and measured after 60 mins by TR-FRET assay; design: species or system Homo sapiens
[32] = test system: Transcriptional enhancer factor TEF-4-Lipid; test: Inhibition of His-tagged TEAD2 (unknown origin) to lipid (unknown origin) interaction preincubated for 30 mins followed by biotinylated lipid addition and measured after 60 mins by TR-FRET assay; design: species or system Homo sapiens
[33] = test system: Transcriptional enhancer factor TEF-5-Lipid; test: Inhibition of His-tagged TEAD3 (unknown origin) to lipid (unknown origin) interaction preincubated for 30 mins followed by biotinylated lipid addition and measured after 60 mins by TR-FRET assay; design: species or system Homo sapiens
[34] = test system: Transcriptional enhancer factor TEF-3-Lipid; test: Inhibition of His-tagged TEAD4 (unknown origin) to lipid (unknown origin) interaction preincubated for 30 mins followed by biotinylated lipid addition and measured after 60 mins by TR-FRET assay; design: species or system Homo sapiens
[35] = test system: U-251; test: Antiproliferative activity against human U251 cells incubated for 48 hrs by CCK8 assay; assay type: functional, cell-based; conditions: U-251, 48 h
[36] = test system: C6; test: Antiproliferative activity against rat C6 cells incubated for 48 hrs by CCK8 assay; assay type: functional, cell-based; conditions: C6, 48 h
[37] = test system: MGC-803; test: Antiproliferative activity against human MGC-803 cells incubated for 48 hrs by MTT assay; assay type: functional, cell-based; conditions: MGC-803, 48 h
[38] = test system: SGC-7901; test: Antiproliferative activity against human SGC-7901 cells incubated for 48 hrs by MTT assay; assay type: functional, cell-based; conditions: SGC-7901, 48 h
[39] = test system: HGC-27; test: Antiproliferative activity against human HGC-27 cells incubated for 48 hrs by MTT assay; assay type: functional, cell-based; conditions: HGC-27, 48 h
[40] = test system: PC-3; test: Antiproliferative activity against human PC-3 cells incubated for 48 hrs by MTT assay; assay type: functional, cell-based; conditions: PC-3, 48 h
[41] = test system: MCF7; test: Antiproliferative activity against human MCF7 cells incubated for 48 hrs by MTT assay; assay type: functional, cell-based; conditions: MCF7, 48 h

- IC50 [2]: 24 µM
- IC50 [3]: 13.3 µM
SMILES: CN(C)CCCN1c2ccccc2CCc2ccccc21 [IMIPRAMINE]
- IC50 [1]: 22.1 µM
- IC50 [4]: 43.8 µM
- IC50 [5]: 153 µM
- IC50 [6]: 346 µM

- IC50 [7]: ≤ 10 µM
- IC50 [9]: ≤ 10 µM
SMILES: Cc1ccc(Nc2nccc(N(C)c3ccc4c(C)n(C)nc4c3)n2)cc1S(N)(=O)=O [PAZOPANIB]
- IC50 [8]: ≤ 10 µM

- IC50 [10]: > 10 µM
SMILES: CCC(C)(C)C(=O)O[C@H]1C[C@@H](C)C=C2C=C[C@H](C)[C@H](CC[C@@H]3C[C@@H](O)CC(=O)O3)[C@H]21 [SIMVASTATIN]

- IC50 [7]: < 10 µM
SMILES: Cc1nc(Nc2ncc(C(=O)Nc3c(C)cccc3Cl)s2)cc(N2CCN(CCO)CC2)n1 [DASATINIB ANHYDROUS]
- IC50 [8]: < 10 µM

Further lines, the compound ahead of its results:

SMILES: O=C1C=C(Nc2ccc(O)cc2)C(=O)c2ccccc21
- IC50 [11]: 4.17 µM
- IC50 [12]: 3.8 µM
- IC50 [13]: 5.35 µM
- IC50 [14]: 19.8 µM
- IC50 [15]: 2.68 µM

SMILES: O=S(=O)(c1ccc2c(c1)C(=NO)c1cc(S(=O)(=O)N3CCCCC3)ccc1-2)N1CCCCC1
- IC50 [16]: < 1 µM
- IC50 [17]: < 1 µM
- IC50 [18]: < 1 µM
- IC50 [19]: < 1 µM

SMILES: CC(C)c1c(C(=O)Nc2ccccc2)c(-c2ccccc2)c(-c2ccc(F)cc2)n1CC[C@@H](O)C[C@@H](O)CC(=O)O [ATORVASTATIN]
- EC50 [20]: 23.5 µM
- EC50 [21]: 7 µM
- IC50 [22]: < 50 µM

SMILES: CCOC(=O)c1cnn2c(=O)cc(-c3ccc(C(F)(F)F)cc3)[nH]c12
- IC50 [23]: > 5 µM
- IC50 [24]: 3 µM
- IC50 [25]: 1.4 µM
- IC50 [26]: > 50 µM
- IC50 [27]: 1.3 µM
- IC50 [28]: 2 µM
- IC50 [29]: 1.3 µM
- IC50 [30]: 20 µM
- IC50 [31]: 1.1 µM
- IC50 [32]: 1.6 µM
- IC50 [33]: 0.7 µM
- IC50 [34]: > 50 µM

SMILES: O=c1ccc2ccc3occc3c2o1 [ANGELICIN]
- IC50 [35]: 200 µM
- IC50 [36]: 200 µM

SMILES: N#C[C@@H]1CCN(C(=O)c2cnn3c(=O)cc(-c4ccc(C5CCCCC5)cc4)[nH]c23)C1
- IC50 [23]: 0.03 µM
- IC50 [24]: 0.01 µM
- IC50 [25]: 0.05 µM
- IC50 [26]: 0.21 µM
- IC50 [27]: 0.05 µM
- IC50 [28]: 0.01 µM
- IC50 [29]: 0.04 µM
- IC50 [30]: 0.08 µM
- IC50 [31]: 0.03 µM
- IC50 [32]: 0.02 µM
- IC50 [33]: 0.04 µM
- IC50 [34]: 0.05 µM

SMILES: COc1ccc(S(=O)(=O)N(Cc2nc(C)c3ccccc3n2)c2cc(OC)c(OC)c(OC)c2)cc1
- IC50 [37]: 0.36 µM
- IC50 [38]: 0.38 µM
- IC50 [39]: 0.46 µM
- IC50 [11]: 0.7 µM
- IC50 [40]: 1.04 µM
- IC50 [41]: 0.81 µM
